Read-outs that look alike come from different tables or passages of the source.
How the values were obtained:
Assay type in all cases: cell-based, human
CXF HCC-2998 = assay: CellTiter-Blue 2D monolayer assay (Example 1), colon; conditions: for Test/Control (%): 72 h
Experimental: (§1) Compound 85 was assessed in 10 human tumor cell lines (see Table 3) for anti-cancer activity in vitro using a CellTiter-Blue® based 2D monolayer assay.
(§2) CellTiter-Blue® Cell Viability Assay: Tumor cells were grown at 37° C. in a humidified atmosphere with 5% CO2 in RPMI medium, supplemented with 10% (v/v) fetal calf serum and 50 μg/ml gentamicin (140 μl/well). Cultures were incubated at 37° C. and 5% CO2 in a humidified atmosphere. After 24 hours, 10 μl of Compound 85 was added, and left on the cells for another 72 hours (incubation period). Compound 85 was tested at 5 concentrations (0.003 μM, 0.03 μM, 0.3 μM, 3 μM, and 30 μM) and serially diluted in DMSO, mixed with cell culture medium, and added to the assay plates by using a Tecan Freedom EVO 200 robotic platform. The DMSO concentration was kept constant at 0.3% yip across the assay plate. Every 96 well plate included six DMSO-treated control wells and Compound 85-treated wells in duplicate at 5 concentrations. Viability of cells was quantified using the CellTiter-Blue® cell viability assay (Promega G8081). After incubation of cells, the CellTiter-Blue® reagent was brought to ambient temperature. Next, 20 μl of CellTiter-Blue® reagent were added to each well. After incubation tier up to 4 hours, fluorescence (FU) was measured using the EnSpire® multimode plate reader (Perkin Elmer) ([…]).
(§3) Data Evaluation: Sigmoidal concentration-response curves were fitted to the data points (test-versus-control; T/C values) obtained for each tumor model using 4 parameter non-linear curve fit (Charles River DRS Datawarehouse Software). Drug effects are expressed in terms of the percentage of the fluorescence signal, obtained by comparison of the mean signal in the treated wells with the mean signal of the untreated controls (T/C-value [%]) (Table 4). IC50 and IC70 values were reported as relative and absolute IC50 and IC70 values (Table 5). The absolute IC50 and IC70 values reflect the concentration of Compound 85 that achieves T/C=50% and T/C=30%, respectively. The relative IC50 value is the concentration of Compound 85 that gives a response half way between the top and bottom plateau of the sigmoidal concentration-response curve (inflection point of the curve).

CXF LS 174T = assay: as above; conditions: for Test/Control (%): 72 h
Experimental: as §1, §2, §3

PRXF DU-145 = assay: CellTiter-Blue Cell Viability Assay (Example 2), prostate; conditions: for T/C %: 72 h
From the text: (§4) The CellTiter-Blue® Cell Viability Assay was used to assess the viability of cells from various cancer cell lines, in the presence or absence of Compound 85 (at different concentrations). This assay provides a homogeneous, fluorometric method for estimating the number of viable cells present in multi-well plates. Viable cells retain the ability to reduce resazurin to resorufin, which is highly fluorescent. […] The fluorescence produced is proportional to the number of viable cells. There is a linear relationship between cell number and fluorescence.
(§5) Cancer cells (see Table 6) were harvested from exponential phase cultures, counted and plated in 96 well flat-bottom microtiter plates, at a cell density 6,000-20,000 cells/well, depending on the cell line's growth rate. The culture medium was supplemented with 10% (v/v) foetal calf serum and 50 μg/mL gentamicin (140 μL/well). Cultures were incubated at 37° C. and 5% CO2 in a humidified atmosphere.
(§6) Compound 85 was serially diluted in DMSO, and five Compound 85 concentrations in half-log increments were used: 0.03 μM, 0.09 μM, 0.30 μM, 1.0 μM, and 3.0 μM. After 24 h, 10 μL of Compound 85 (dissolved in DMSO) or control (DMSO) medium were added, in duplicates, and left on the cells for another 72 h. Compound 85 solutions were added to the assay plates using a Tecan Freedom EVO 200 robotic platform. The DMSO concentration was kept constant at 0.3% v/v across the assay plate.
(§7) After incubation of up to 72 hours, fluorescence (FU) was measured using the EnSpire® multimode plate reader (Perkin Elmer) (excitation λ=570 nm, emission λ=600 nm).
(§8) Cancer cell lines used: Compound 85's anti-cancer effect was tested in 20 human cancer-cell lines representing nine cancer types (Table 6).
(§9) The percentage of viable cells in the presence of Compound 85 (Test condition, T), at different concentrations, are presented in Table 7 and expressed as a percentage of the number of viable cells in the presence of DMSO without Compound 85 (Control condition, C).
(§10) The relative IC50 is determined as the Compound 85 concentration giving a response halfway between the maximum cell viability signal (i.e., a 100% cell viability, no Compound 85 response) and the minimal viability signal (i.e. maximum cell viability inhibition achieved by Compound 85), in a sigmoidal concentration-effect curve.
(§11) The absolute IC50 is determined as the concentration that is associated with a T/C ratio of 50%.

PRXF PC-3 = assay: as above; conditions: for T/C %: 72 h
From the text: as §4, §5, §6, §7, §8, §9, §10, §11

SXFS 1301 = assay: CellTiter-Blue Cell Viability Assay (Example 2), soft tissue sarcoma; conditions: for T/C %: 72 h
From the text: as §4, §5, §6, §7, §8, §9, §10, §11

SXFS Hs 729 = assay: as above; conditions: for T/C %: 72 h
From the text: as §4, §5, §6, §7, §8, §9, §10, §11

For CC(C)(O)Cn1nc(-c2ccccc2)c2c(Cl)c(-c3ccccc3)nnc21 [Compound 85], the “Rel. IC70” value (CXF HCC-2998) was 1630 nM, the “Test/Control (%)” value (CXF HCC-2998; 0.003 μM) was 97% and the “Test/Control (%)” value (CXF HCC-2998; 0.03 μM) was 100%. For the same compound, the “Test/Control (%)” value (CXF HCC-2998; 0.3 μM) was 90%, the “Test/Control (%)” value (CXF HCC-2998; 3 μM) was 13% and the “Test/Control (%)” value (CXF HCC-2998; 30 μM) was 1%. The “Abs. IC70” value (CXF HCC-2998; T/C=30%) was 1628 nM, the IC50 (CXF HCC-2998; T/C=50%, read-out: Abs. IC50) was 1020 nM and the “Bot. (%)” value (CXF HCC-2998; bottom plateau of curve) was 1%. For the same compound, the IC50 (CXF HCC-2998; read-out: Rel. IC50) was 1030 nM, the “Top (%)” value (CXF HCC-2998; top plateau of curve) was 99% and the “Rel. IC70” value (CXF LS 174T) was 328 nM. The “Test/Control (%)” value (CXF LS 174T; 0.003 μM) was 103%, the “Test/Control (%)” value (CXF LS 174T; 0.03 μM) was 101% and the “Test/Control (%)” value (CXF LS 174T; 0.3 μM) was 35%. For the same compound, the “Test/Control (%)” value (CXF LS 174T; 3 μM) was 4%, the “Test/Control (%)” value (CXF LS 174T; 30 μM) was 0% and the “Abs. IC70” value (CXF LS 174T; T/C=30%) was 346 nM. For the same compound, the IC50 (CXF LS 174T; T/C=50%, read-out: Abs. IC50) was 215 nM, the “Bot. (%)” value (CXF LS 174T; bottom plateau of curve) was 1% and the IC50 (CXF LS 174T; read-out: Rel. IC50) was 204 nM. For the same compound, the “Top (%)” value (CXF LS 174T; top plateau of curve) was 103%, the “Absolute IC70” value (PRXF DU-145) was 1528 nM and the “Relative IC70” value (PRXF DU-145) was 1376 nM. It also gave a T/C % (PRXF DU-145; 0.03 μM) of 100%, a T/C % (PRXF DU-145; 0.095 μM) of 110% and a T/C % (PRXF DU-145; 0.3 μM) of 102%. It also gave a T/C % (PRXF DU-145; 0.95 μM) of 11%, a T/C % (PRXF DU-145; 3.0 μM) of 6% and an IC50 (PRXF DU-145; read-out: Absolute IC50) of 1090 nM. For the same compound, the IC50 (PRXF DU-145; read-out: Relative IC50) was 1010 nM, the “Absolute IC70” value (PRXF PC-3) was 1349 nM and the “Relative IC70” value (PRXF PC-3) was 1326 nM. It also gave a T/C % (PRXF PC-3; 0.03 μM) of 104%, a T/C % (PRXF PC-3; 0.095 μM) of 103% and a T/C % (PRXF PC-3; 0.3 μM) of 103%. For the same compound, the T/C % (PRXF PC-3; 0.95 μM) was 2%, the T/C % (PRXF PC-3; 3.0 μM) was 1% and the IC50 (PRXF PC-3; read-out: Absolute IC50) was 1100 nM. The IC50 (PRXF PC-3; read-out: Relative IC50) was 1080 nM, the “Absolute IC70” value (SXFS 1301) was 570 nM and the “Relative IC70” value (SXFS 1301) was 558 nM. For the same compound, the T/C % (SXFS 1301; 0.03 μM) was 105%, the T/C % (SXFS 1301; 0.095 μM) was 106% and the T/C % (SXFS 1301; 0.3 μM) was 102%. The T/C % (SXFS 1301; 0.95 μM) was 3%, the T/C % (SXFS 1301; 3.0 μM) was 2% and the IC50 (SXFS 1301; read-out: Absolute IC50) was 501 nM. The IC50 (SXFS 1301; read-out: Relative IC50) was 490 nM, the “Absolute IC70” value (SXFS Hs 729) was 808 nM and the “Relative IC70” value (SXFS Hs 729) was 789 nM. It also gave a T/C % (SXFS Hs 729; 0.03 μM) of 99%, a T/C % (SXFS Hs 729; 0.095 μM) of 99% and a T/C % (SXFS Hs 729; 0.3 μM) of 99%. It also gave a T/C % (SXFS Hs 729; 0.95 μM) of 13%, a T/C % (SXFS Hs 729; 3.0 μM) of 7% and an IC50 (SXFS Hs 729; read-out: Absolute IC50) of 733 nM. For the same compound, the IC50 (SXFS Hs 729; read-out: Relative IC50) was 724 nM.
